33 compounds from US10220034B2, “Hepatitis B viral assembly effectors” (Indiana University Research and Technology Corp., priority 2013, dated 2019) can be followed below.

One assay relates to HBV Cp. Kind of assay: Capsid assembly assay (fluorescence quenching). Particulars: 10 μM compound, control reactions with no drug show 25±5% assembly.
Another assay relates to AD38 cells. Put plainly: Activity of test compounds on viral production from AD38 cells (qPCR viral load). More on the design: key: (+) depicting meets criteria for significant activity; (++) depicting exceeds criteria. Format: cell-based, HBV. Particulars: 5 days, supernatant qPCR. How it is done:
AD38 cells grown in a 175 cm flash with Growth Medium (DMEM/F12 (1:1) (cat#SH30023.01, Hyclone, 1× Pen/step (cat#: 30-002-CL, Mediatech, Inc), 10% FBS (cat#: 101, Tissue Culture Biologics), 250 μg/mL G418 (cat#: 30-234-CR, Mediatech, Inc), 1 μg/mL Tetracycline (cat#: T3325, Teknova)) were detached with 0.25% trypsin. Tetracycline-free treatment medium (15 mL DMEM/F12 (1:1) (cat#SH30023.01, Hyclone, 1× Pen/step (cat#: 30-002-CL, Mediatech, Inc), with 2% FBS, Tet-system approved (cat#: 631106, Clontech) were then added to mix and spun at 1300 rpm for 5 min. Pelleted cells were then re-suspended/washed with 50 mL of 1×PBS 2 times and 10 mL treatment medium one time. AD38 cells were then re-suspended with 10 mL of treatment medium and counted. Wells of a collagen coated 96-well NUNC microtiter plate were seeded at 50,000/well in 180 μL of treatment medium, and 20 μL of either 10% DMSO (Control) or a 10× solution of test compound in 10% DMSO in treatment media was added for as final compound concentration 1, 3, or 10 μM (1.0% final [DMSO]) and plates were incubated for 5 days at 37° C.
Subsequently viral load production was assayed by quantitative PCR of the core sequence. Briefly, 5 μL of clarified supernatant was added to a PCR reaction mixture that contained forward primers HBV-f 5′-[…]-3′, Reverse primers HBV-r 5′-[…]-3′ and Fluorescent TaqMan™ Probes HBV-probe 5′-FAM/[…]/ZEN/[…]/31ABkFQ-3′ in Quanta Biosciences PerfeCTa® qPCR Toughmix®, and was subsequently on an Applied Biosystems VIIA7 in a final volume of 20 μL. The PCR mixture was incubated at 45° C. for 5 minutes, then 95° C. for 10 min, followed by 40 cycles of 10 seconds at 95° C. and 20 seconds at 60° C. Viral load was quantitated against known standards by using ViiA™ 7 Software. Viral load in the supernatant from wells with treated cells were compared against viral load in supernatant from DMSO control wells (≥3 per plate). In Table 4, concentrations of test compound causing reductions in viral load greater than at least 3 standard deviations from the DMSO controls across all plates were considered active, with (+) depicting meets criteria for significant activity, and (++) depicting exceeds criteria.

Turning to `CCCCOc1ccc(S(=O)(=O)N2CCN(c3nc(C)cc(Nc4ccc(C)cc4)n3)CC2)cc1` [compound 9], in the assay with HBV Cp, the “% Capsid formation at 24 h (10 μM)” value is listed as 93%.
Regarding `COc1ccc(S(=O)(=O)N2CCN(c3nc(C)cc(Nc4ccc(C)cc4)n3)CC2)cc1` [compound 11], the “reduction in viral load vs DMSO controls” value in the assay on AD38 cells (test concentration 3 μM) and with AD38 cells (test concentration 10 μM) was “++” throughout. In addition, in the assay on HBV Cp, the “% Capsid formation at 24 h (10 μM)” value is listed as 89%.
Turning to `Cc1ccc(Nc2cc(C)nc(N3CCN(S(=O)(=O)c4ccccc4F)CC3)n2)cc1` [compound 14], in the assay with HBV Cp, the “% Capsid formation at 24 h (10 μM)” value turned out to be 67%.
As to `COc1ccc(S(=O)(=O)N2CCN(c3nc(C)cc(Nc4ccc(Cl)cc4)n3)CC2)cc1` [compound 37], the “reduction in viral load vs DMSO controls” value in the assay with AD38 cells (test concentration 1 μM), with AD38 cells (test concentration 3 μM) and in the assay with AD38 cells (test concentration 10 μM) was “++” in each case. The “% Capsid formation at 24 h (10 μM)” value in the assay with HBV Cp amounted to 93%.
Take `Cc1ccc(Nc2cc(C)nc(N3CCN(S(=O)(=O)c4ccc(O)cc4)CC3)n2)cc1` [compound 4]: the “% Capsid formation at 24 h (10 μM)” value in the assay on HBV Cp is 99%.
In the case of `Cc1ccc(Nc2cc(C)nc(N3CCN(S(=O)(=O)c4cccc(F)c4)CC3)n2)cc1` [compound 15], the “reduction in viral load vs DMSO controls” value with AD38 cells (test concentration 3 μM) and with AD38 cells (test concentration 10 μM) was “++” each time. Moreover, the “% Capsid formation at 24 h (10 μM)” value in the assay with HBV Cp is listed as 76%.
As to `COc1cccc(S(=O)(=O)N2CCN(c3nc(C)cc(Nc4ccc(C)cc4)n3)CC2)c1` [compound 16], the “reduction in viral load vs DMSO controls” value in the assay with AD38 cells (test concentration 1 μM), in the assay with AD38 cells (test concentration 3 μM) and in the assay with AD38 cells (test concentration 10 μM) was “++” throughout. For the same compound, the “% Capsid formation at 24 h (10 μM)” value in the assay with HBV Cp was 95%.
As to `COc1cccc(S(=O)(=O)N2CCN(c3nc(C)cc(Nc4ccc(F)cc4)n3)CC2)c1` [compound 44], the “% Capsid formation at 24 h (10 μM)” value in the assay with HBV Cp is listed as 92%.
As to `COc1ccc(S(=O)(=O)N2CCN(c3nc(C)cc(Nc4ccc(C)cc4)n3)CC2)cc1OC` [compound 18], the “reduction in viral load vs DMSO controls” value in the assay on AD38 cells (test concentration 3 μM) and in the assay on AD38 cells (test concentration 10 μM) was “++” in each case. Besides, in the assay on HBV Cp, the “% Capsid formation at 24 h (10 μM)” value was determined as 71%.
With `COc1ccc(S(=O)(=O)N2CCN(c3nc(Nc4ccc(C)cc4)cc(C(C)(C)C)n3)CC2)cc1` [compound 31], the “reduction in viral load vs DMSO controls” value in the assay on AD38 cells (test concentration 3 μM) and with AD38 cells (test concentration 10 μM) was “++” throughout. The “% Capsid formation at 24 h (10 μM)” value in the assay on HBV Cp was 87%.
For `Cc1ccc(Nc2cc(C)nc(N3CCN(S(=O)(=O)c4ccc(OC(F)(F)F)cc4)CC3)n2)cc1` [compound 2], the “% Capsid formation at 24 h (10 μM)” value in the assay with HBV Cp was determined as 83%.
Regarding `Cc1ccc(Nc2cc(C)nc(N3CCN(S(=O)(=O)c4ccc(N)cc4)CC3)n2)cc1` [compound 26], the “reduction in viral load vs DMSO controls” value with AD38 cells (test concentration 3 μM) and with AD38 cells (test concentration 10 μM) was “++” throughout. For the same compound, the “% Capsid formation at 24 h (10 μM)” value in the assay on HBV Cp is 96%.
In the case of `COc1ccc(S(=O)(=O)N2CCN(c3nc(C)cc(Nc4ccc(C#N)cc4)n3)CC2)cc1` [compound 42], the “reduction in viral load vs DMSO controls” value in the assay with AD38 cells (test concentration 10 μM) was “++”. Moreover, the “% Capsid formation at 24 h (10 μM)” value in the assay with HBV Cp was found to be 69%.
Take `Cc1ccc(Nc2cc(C)nc(N3CCN(S(=O)(=O)c4ccc(Cl)cc4)CC3)n2)cc1` [compound 3]: the “reduction in viral load vs DMSO controls” value with AD38 cells (test concentration 1 μM), in the assay on AD38 cells (test concentration 3 μM) and with AD38 cells (test concentration 10 μM) was “++” each time. In addition, the “% Capsid formation at 24 h (10 μM)” value in the assay on HBV Cp is reported as 94%.
Regarding `COc1ccc(S(=O)(=O)N2CCN(c3nc(C)cc(Nc4ccccc4)n3)CC2)cc1` [compound 39], the “% Capsid formation at 24 h (10 μM)” value with HBV Cp was found to be 56%.
On the same count and under the same terms, then `COc1ccc(Nc2cc(C)nc(N3CCN(S(=O)(=O)c4ccc(OC)cc4)CC3)n2)cc1` [compound 43], with 97%.
Still for that read-out and setting: then `COc1ccc(Nc2cc(C)nc(N3CCN(S(=O)(=O)c4ccc(OC)c(OC)c4)CC3)n2)cc1` [compound 45], with 87%; and `Cc1ccc(Nc2cc(C)nc(N3CCN(S(=O)(=O)c4ccc5ccccc5c4)CC3)n2)cc1` [compound 17], with 70%.
As for `COc1ccc(S(=O)(=O)N2CCN(c3nc(C)cc(Nc4ccc(C(F)(F)F)cc4)n3)CC2)cc1` [compound 40], the “reduction in viral load vs DMSO controls” value with AD38 cells (test concentration 1 μM), in the assay with AD38 cells (test concentration 3 μM) and in the assay on AD38 cells (test concentration 10 μM) was “++” in each case. Besides, in the assay on HBV Cp, the “% Capsid formation at 24 h (10 μM)” value was determined as 91%.
With `COc1ccc(S(=O)(=O)N2CCN(c3nc(Nc4ccc(C)cc4)cc(C(C)C)n3)CC2)cc1` [compound 30], the “% Capsid formation at 24 h (10 μM)” value in the assay with HBV Cp is 87%.
In the case of `COc1ccc(S(=O)(=O)N2CCN(c3nc(C)cc(Nc4ccc(Br)cc4)n3)CC2)cc1` [compound 34], the “reduction in viral load vs DMSO controls” value in the assay on AD38 cells (test concentration 1 μM), in the assay with AD38 cells (test concentration 3 μM) and with AD38 cells (test concentration 10 μM) was “++” in each case. Also, in the assay with HBV Cp, the “% Capsid formation at 24 h (10 μM)” value came out at 96%.
Take `CC(=O)Nc1ccc(S(=O)(=O)N2CCN(c3nc(C)cc(Nc4ccc(C)cc4)n3)CC2)cc1` [compound 10]: the “reduction in viral load vs DMSO controls” value in the assay on AD38 cells (test concentration 1 μM) was “+”; with AD38 cells (test concentration 3 μM), “++”; in the assay with AD38 cells (test concentration 10 μM) it was “++”. For the same compound, the “% Capsid formation at 24 h (10 μM)” value in the assay with HBV Cp is given as 96%.
`CCCc1cc(Nc2ccc(C)cc2)nc(N2CCN(S(=O)(=O)c3ccc(OC)cc3)CC2)n1` [compound 32]: the “reduction in viral load vs DMSO controls” value in the assay on AD38 cells (test concentration 1 μM), with AD38 cells (test concentration 3 μM) and in the assay with AD38 cells (test concentration 10 μM) was “++” in each case. Besides, the “% Capsid formation at 24 h (10 μM)” value in the assay with HBV Cp is 69%.
Turning to `COc1ccc(S(=O)(=O)N2CCN(c3nc(C)cc(Nc4ccc(OC(F)(F)F)cc4)n3)CC2)cc1` [compound 36], in the assay on HBV Cp, the “% Capsid formation at 24 h (10 μM)” value is on record as 78%.
For the compound `Cc1ccc(Nc2cc(C)nc(N3CCN(S(=O)(=O)c4cccc(C)c4)CC3)n2)cc1` [compound 7], the “reduction in viral load vs DMSO controls” value is reported as “+” with AD38 cells (test concentration 1 μM), “++” in the assay with AD38 cells (test concentration 3 μM) and “++” in the assay with AD38 cells (test concentration 10 μM). Besides, in the assay on HBV Cp, the “% Capsid formation at 24 h (10 μM)” value stood at 79%.
For the compound `Cc1ccc(Nc2cc(C)nc(N3CCN(S(=O)(=O)c4ccc5cc(N(C)C)ccc5c4)CC3)n2)cc1` [compound 19], the “% Capsid formation at 24 h (10 μM)” value with HBV Cp turned out to be 83%.
On to `COc1ccc(Nc2cc(C)nc(N3CCN(S(=O)(=O)c4ccc(OC)cc4)CC3)n2)cc1` [compound 41], for which the “% Capsid formation at 24 h (10 μM)” value in the assay with HBV Cp was 84%.
The same measure, in the same setting: then `Cc1ccc(S(=O)(=O)N2CCN(c3nc(Nc4ccc(F)cc4)cc(C(C)C)n3)CC2)cc1` [compound 22], with 80%; and `CCCCc1ccc(S(=O)(=O)N2CCN(c3nc(C)cc(Nc4ccc(C)cc4)n3)CC2)cc1` [compound 20], with 90%; and `COc1ccc(S(=O)(=O)N2CCN(c3nc(C)cc(Nc4ccc(F)cc4)n3)CC2)cc1` [compound 38], with 75%.
On the same count and under the same terms, next, `CC(C)c1cc(Nc2ccc(F)cc2)nc(N2CCN(S(=O)(=O)c3ccccc3)CC2)n1` [compound 21]: 71%.
Same read-out and setting: then `Cc1ccc(Nc2cc(C)nc(N3CCN(S(=O)(=O)c4ccccc4)CC3)n2)cc1` [compound 12], with 73%; and `Cc1ccc(Nc2cc(C)nc(N3CCN(S(=O)(=O)c4ccc(F)cc4)CC3)n2)cc1` [compound 13], with 60%.
